Test results from patent publication US9555022B2, “Substituted triazolopyridines” (Bayer Intellectual Property GmbH, priority 2010, dated 2017).

Biological target: human full length recombinant Mps-1 kinase (Homo sapiens (Human), UniProt P33981)
Assay: Mps-1 Kinase Assay (TR-FRET)
Format: biochemical
Settings: 10 μM ATP, 1 μM biotinylated peptide substrate, 60 min at 22° C., read-out: Mps-1 Inhibition, IC50 in M
Protocol: The human kinase Mps-1 phosphorylates a biotinylated substrate peptide. Detection of the phosphorylated product is achieved by time-resolved fluorescence resonance energy transfer (TR-FRET) from Europium-labelled anti-phospho-Serine/Threonine antibody as donor to streptavidin labelled with cross-linked allophycocyanin (SA-XLent) as acceptor. Compounds are tested for their inhibition of the kinase activity.
N-terminally GST-tagged human full length recombinant Mps-1 kinase (purchased from Invitrogen, Karslruhe, Germany, cat. no PV4071) was used. As substrate for the kinase reaction a biotinylated peptide of the amino-acid sequence […] (C-terminus in amide form, purchased from Biosynthan GmbH, Berlin) was used.
The concentration of Mps-1 in the assay was adjusted to the activity of the enzyme lot and was chosen appropriate to have the assay in the linear range, typical enzyme concentrations were in the range of about 1 nM (final conc. in the 5 μl assay volume).
The resulting mixture was incubated 1 h at 22° C. to allow the binding of the phosphorylated peptide to the anti-phospho(Ser/Thr)-Europium-antibody. Subsequently the amount of phosphorylated substrate was evaluated by measurement of the resonance energy transfer from the Europium-labelled anti-phospho(Ser/Thr) antibody to the Streptavidin-XLent.

Sequence of human full length recombinant Mps-1 kinase (P33981 whole entry): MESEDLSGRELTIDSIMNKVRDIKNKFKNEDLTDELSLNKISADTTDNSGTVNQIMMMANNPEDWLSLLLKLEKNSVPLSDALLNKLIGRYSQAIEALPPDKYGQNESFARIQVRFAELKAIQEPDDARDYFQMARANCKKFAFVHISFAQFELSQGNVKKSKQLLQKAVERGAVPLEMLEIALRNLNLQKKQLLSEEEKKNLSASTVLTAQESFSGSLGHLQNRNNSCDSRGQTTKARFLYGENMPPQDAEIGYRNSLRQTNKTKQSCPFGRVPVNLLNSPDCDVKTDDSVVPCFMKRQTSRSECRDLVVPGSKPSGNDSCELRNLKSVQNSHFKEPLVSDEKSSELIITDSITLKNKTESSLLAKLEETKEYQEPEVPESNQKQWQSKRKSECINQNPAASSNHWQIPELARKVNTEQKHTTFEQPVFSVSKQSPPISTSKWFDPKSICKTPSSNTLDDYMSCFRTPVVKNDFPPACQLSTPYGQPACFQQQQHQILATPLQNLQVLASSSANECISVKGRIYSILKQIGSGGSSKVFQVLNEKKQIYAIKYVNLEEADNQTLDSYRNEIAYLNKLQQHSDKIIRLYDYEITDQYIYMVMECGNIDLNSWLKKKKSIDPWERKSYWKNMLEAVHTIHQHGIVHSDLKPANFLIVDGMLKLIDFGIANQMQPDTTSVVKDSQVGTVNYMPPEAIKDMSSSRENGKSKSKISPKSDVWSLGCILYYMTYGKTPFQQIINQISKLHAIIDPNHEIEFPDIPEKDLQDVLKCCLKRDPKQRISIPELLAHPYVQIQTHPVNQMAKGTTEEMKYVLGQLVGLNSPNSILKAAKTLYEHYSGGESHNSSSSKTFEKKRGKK

Row | IC50 [nM] | SMILES
1 | ≤ 1 | O=C(NCc1ccc(F)cc1)c1ccc(-c2ccc3nc(Nc4ccc(C(=O)N5CCOCC5)cc4OCC(F)(F)F)nn3c2)cc1 [Example 04.17, N-(4-fluorobenzyl)-4-(2-{[4-(morpholin-4-ylcarbonyl)-2-(2,2,2-trifluoroethoxy)phenyl]amino}[,2]-triazolo[1,5-a]pyridin-6-yl)benzamide]
2 | ≤ 1 | COc1cc(C(=O)N2CC3(COC3)C2)ccc1Nc1nc2ccc(-c3ccc(C(=O)NCc4ccc(F)cc4)cc3)cn2n1 [Example 04.07, N-(4-fluorobenzyl)-4-(2-{[2-methoxy-4-(2-oxa-6-azaspiro[3.3]hept-6-ylcarbonyl)phenyl]amino}[,2]triazolo[1,5-a]pyridin-6-yl)benzamide]
3 | ≤ 1 | O=C(NCc1ccc(F)cc1)c1ccc(-c2ccc3nc(Nc4ccc(C(=O)N5CC(O)C5)cc4OCC(F)(F)F)nn3c2)cc1 [Example 04.16, N-(4-fluorobenzyl)-4-[2-({4-[(3-hydroxyazetidin-1-yl)carbonyl]-2-(2,2,2-trifluoroethoxy)phenyl}amino)[,2]triazolo[1,5-a]pyridin-6-yl]benzamide]
4 | 1.62 | COc1cc(C(=O)N2CCOCC2)ccc1Nc1nc2ccc(-c3ccc(NC(=O)Cc4ccc(F)cc4)nc3)cn2n1 [Example 11.01, 2-(4-fluorophenyl)-N-[5-(2-{[2-methoxy-4-(morpholin-4-ylcarbonyl)phenyl]amino}[,2]triazolo[1,5-a]pyridin-6-yl)pyridin-2-yl]acetamide]
5 | ≤ 1 | CCOc1cc(C(=O)N2CCOCC2)ccc1Nc1nc2ccc(-c3ccc(NC(=O)Cc4ccc(F)cc4)cc3)cn2n1 [Example 02.02, N-[4-(2-{[2-ethoxy-4-(morpholin-4-ylcarbonyl)phenyl]amino}[,2]-triazolo[1,5-a]pyridin-6-yl)phenyl]-2-(4-fluorophenyl)acetamide]
6 | ≤ 1 | Cc1nc(N2CCCC2)ccc1Nc1nc2ccc(-c3ccc(C(=O)NCc4ccc(F)cc4)cc3)cn2n1 [Example 04.34, N-(4-fluorobenzyl)-4-(2-{[2-methyl-6-(pyrrolidin-1-yl)pyridin-3-yl]amino}[,2]triazolo[1,5-a]pyridin-6-yl)benzamide]
7 | ≤ 1 | O=C(Cc1ccc(F)cc1)Nc1ccc(-c2ccc3nc(Nc4ccc(C(=O)N5CC(O)C5)cc4OCC(F)(F)F)nn3c2)cc1 [Example 02.27, 2-(4-fluorophenyl)-N-{4-[2-({4-[(3-hydroxyazetidin-1-yl)carbonyl]-2-(2,2,2-trifluoroethoxy)phenyl}amino)[,2]triazolo[1,5-a]pyridin-6-yl]phenyl}acetamide]
8 | ≤ 1 | COc1cc(C(=O)N2CC3(COC3)C2)ccc1Nc1nc2ccc(-c3ccc(C(=O)NCC4CC4)cc3)cn2n1 [Example 03.07, N-(cyclopropylmethyl)-4-(2-{[2-methoxy-4-(2-oxa-6-azaspiro[3.3]hept-6-ylcarbonyl)phenyl]amino}[,2]triazolo[1,5-a]pyridin-6-yl)benzamide]
9 | ≤ 1 | CCOc1cc(C(=O)N2CC(O)C2)ccc1Nc1nc2ccc(-c3ccc(C(=O)NCc4ccc(F)cc4)cc3)cn2n1 [Example 04.14, 4-[2-({2-ethoxy-4-[(3-hydroxyazetidin-1-yl)carbonyl]phenyl}amino)[,2]triazolo[1,5-a]pyridin-6-yl]-N-(4-fluorobenzyl)benzamide]
10 | ≤ 1 | CCOc1cc(C(=O)NC2CCN(C)CC2)ccc1Nc1nc2ccc(-c3ccc(C(=O)NCC4CC4)cc3)cn2n1 [Example 03.04, 4-[(6-{4-[(cyclopropylmethyl)carbamoyl]phenyl}[,2]triazolo[1,5-a]pyridin-2-yl)amino]-3-ethoxy-N-(1-methylpiperidin-4-yl)benzamide]
11 | ≤ 1 | COc1cc(C2=NCCO2)ccc1Nc1nc2ccc(-c3ccc(C(=O)NCc4ccc(F)cc4)cc3)cn2n1 [Example 04.05, 4-(2-{[4-(4,5-dihydro-1,3-oxazol-2-yl)-2-methoxyphenyl]amino}[,2]-triazolo[1,5-a]pyridin-6-yl)-N-(4-fluorobenzyl)benzamide]
12 | ≤ 1 | CCOc1cc(C(=O)N2CCOCC2)ccc1Nc1nc2ccc(-c3ccc(C(=O)NCC4CC4)cc3)cn2n1 [Example 03.02, N-(cyclopropylmethyl)-4-(2-{[2-ethoxy-4-(morpholin-4-ylcarbonyl)phenyl]amino}[,2]-triazolo[1,5-a]pyridin-6-yl)benzamide]
13 | ≤ 1 | Cc1nc(N2CCOCC2)ccc1Nc1nc2ccc(-c3ccc(C(=O)NCc4ccc(F)cc4)cc3)cn2n1 [Example 04.33, N-(4-fluorobenzyl)-4-(2-{[2-methyl-6-(morpholin-4-yl)pyridin-3-yl]amino}[,2]triazolo[1,5-a]pyridin-6-yl)benzamide]
14 | ≤ 1 | CCOc1cc(OC2CCN(C)CC2)ccc1Nc1nc2ccc(-c3ccc(NC(=O)Cc4ccc(F)cc4)cc3)cn2n1 [Example 02.34, N-{4-[2-({2-ethoxy-4-[(1-methylpiperidin-4-yl)oxy]phenyl}amino)[,2]triazolo[1,5-a]pyridin-6-yl]phenyl}-2-(4-fluorophenyl)acetamide]
15 | ≤ 1 | COc1ccc(C(=O)N2CCOCC2)cc1Nc1nc2ccc(-c3ccc(NC(=O)Cc4ccc(F)cc4)cc3)cn2n1 [Example 02.41, 2-(4-fluorophenyl)-N-[4-(2-{[2-methoxy-5-(morpholin-4-ylcarbonyl)phenyl]amino}[,2]-triazolo[1,5-a]pyridin-6-yl)phenyl]acetamide]
16 | ≤ 1 | CCOc1cc(C(=O)N2CCN(CC3CC3)CC2)ccc1Nc1nc2ccc(-c3ccc(NC(=O)Cc4ccc(F)cc4)cc3)cn2n1 [Example 02.07, N-(4-{2-[(4-{[4-(cyclopropylmethyl)piperazin-1-yl]carbonyl}-2-ethoxyphenyl)amino][,2]triazolo[1,5-a]pyridin-6-yl}phenyl)-2-(4-fluorophenyl)acetamide]
17 | ≤ 1 | COc1cc(C(=O)N2CC(O)C2)ccc1Nc1nc2ccc(-c3ccc(C(=O)NCc4ccc(F)cc4)cc3)cn2n1 [Example 04.08, N-(4-fluorobenzyl)-4-[2-({4-[(3-hydroxyazetidin-1-yl)carbonyl]-2-methoxyphenyl}amino)[,2]-triazolo[1,5-a]pyridin-6-yl]benzamide]
18 | ≤ 1 | O=C(NCc1ccc(F)cc1)c1ccc(-c2ccc3nc(Nc4ccc(C(=O)N5CCOCC5)cc4OC(F)(F)F)nn3c2)cc1 [Example 04.31, N-(4-fluorobenzyl)-4-(2-{[4-(morpholin-4-ylcarbonyl)-2-(trifluoromethoxy)phenyl]amino}[,2]-triazolo[1,5-a]pyridin-6-yl)benzamide]
19 | ≤ 1 | COc1cc(CN2CCOCC2)ccc1Nc1nc2ccc(-c3ccc(NC(=O)Cc4ccc(F)cc4)cc3)cn2n1 [Example 02.33, 2-(4-fluorophenyl)-N-[4-(2-{[2-methoxy-4-(morpholin-4-ylmethyl)phenyl]amino}[,2]-triazolo[1,5-a]pyridin-6-yl)phenyl]acetamide]
20 | ≤ 1 | O=C(Cc1ccc(F)cc1)Nc1ccc(-c2ccc3nc(Nc4ccc(C(=O)N5CCOCC5)cc4C(F)(F)F)nn3c2)cc1 [Example 02.32, 2-(4-fluorophenyl)-N-[4-(2-{[4-(morpholin-4-ylcarbonyl)-2-(trifluoromethyl)phenyl]amino}[,2]-triazolo[1,5-a]pyridin-6-yl)phenyl]acetamide]
21 | ≤ 1 | COc1cc(C(=O)N2CCOCC2)ccc1Nc1nc2ccc(-c3ccc(C(=O)NCc4ccc(F)cc4)cc3)cn2n1 [Example 04.01, N-(4-Fluorbenzyl)-4-(2-{[2-methoxy-4-(morpholin-4-ylcarbonyl)phenyl]amino}[,2]-triazolo[1,5-a]pyridin-6-yl)benzamid]
